Measurements published in PubChem BioAssay (NCI).
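Values below derive from 48-hour exposures of cells grown in 96-well plates, with endpoints linearly interpolated between the two concentrations bracketing the appropriate inhibition level. TGI: concentration producing complete growth inhibition.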

How the values were obtained:
Assay in all cases: NCI-60 cell line screen, 48 h
LOX IMVI melanoma = tested on: LOX IMVI melanoma
ACHN renal = tested on: ACHN renal
SK-MEL-28 melanoma = tested on: SK-MEL-28 melanoma
SK-MEL-2 melanoma = tested on: SK-MEL-2 melanoma
HL-60(TB) leukemia = tested on: HL-60(TB) leukemia
HCT-116 colon = tested on: HCT-116 colon
M14 melanoma = tested on: M14 melanoma
TK-10 renal = tested on: TK-10 renal
K-562 leukemia = tested on: K-562 leukemia
OVCAR-3 ovarian = tested on: OVCAR-3 ovarian
NCI-H23 lung = tested on: NCI-H23 lung
OVCAR-5 ovarian = tested on: OVCAR-5 ovarian
MALME-3M melanoma = tested on: MALME-3M melanoma
KM12 colon = tested on: KM12 colon
RPMI-8226 leukemia = tested on: RPMI-8226 leukemia
UACC-62 melanoma = tested on: UACC-62 melanoma
A498 renal = tested on: A498 renal
SF-295 CNS = tested on: SF-295 CNS
U251 CNS = tested on: U251 CNS
NCI-H460 lung = tested on: NCI-H460 lung
NCI-H226 lung = tested on: NCI-H226 lung
DMS 114 small cell lung = tested on: DMS 114 small cell lung
SNB-19 CNS = tested on: SNB-19 CNS
COLO 205 colon = tested on: COLO 205 colon
SF-539 CNS = tested on: SF-539 CNS
NCI-H522 lung = tested on: NCI-H522 lung
MOLT-4 leukemia = tested on: MOLT-4 leukemia
OVCAR-8 ovarian = tested on: OVCAR-8 ovarian
SF-268 CNS = tested on: SF-268 CNS
SR leukemia = tested on: SR leukemia
HT29 colon = tested on: HT29 colon
M19-MEL melanoma = tested on: M19-MEL melanoma
EKVX NSCLC = tested on: EKVX NSCLC
SK-OV-3 ovarian = tested on: SK-OV-3 ovarian
DMS 273 small cell lung = tested on: DMS 273 small cell lung
KM20L2 colon = tested on: KM20L2 colon
RXF 393 renal = tested on: RXF 393 renal
XF 498 CNS = tested on: XF 498 CNS
IGROV1 ovarian = tested on: IGROV1 ovarian
CAKI-1 renal = tested on: CAKI-1 renal
HOP-62 NSCLC = tested on: HOP-62 NSCLC
UO-31 renal = tested on: UO-31 renal
A549 NSCLC = tested on: A549 NSCLC
SW-620 colon = tested on: SW-620 colon
CCRF-CEM leukemia = tested on: CCRF-CEM leukemia
HCT-15 colon = tested on: HCT-15 colon
HOP-92 NSCLC = tested on: HOP-92 NSCLC
SNB-78 CNS = tested on: SNB-78 CNS
LXFL 529 NSCLC = tested on: LXFL 529 NSCLC
SN12C renal = tested on: SN12C renal
OVCAR-4 ovarian = tested on: OVCAR-4 ovarian
786-0 renal = tested on: 786-0 renal
UACC-257 melanoma = tested on: UACC-257 melanoma
SK-MEL-5 melanoma = tested on: SK-MEL-5 melanoma
SNB-75 CNS = tested on: SNB-75 CNS
DLD-1 colon = tested on: DLD-1 colon
HCC-2998 colon = tested on: HCC-2998 colon

## CC12C=C[C@]3(CC[C@@H]4[C@@](C)(CO)CCC[C@]4(C)C3CC1)C2 (stereo not given in full)
LOX IMVI melanoma
  TGI: 30.7 µM
ACHN renal
  TGI: 32 µM
SK-MEL-28 melanoma
  TGI: 35.6 µM
SK-MEL-2 melanoma
  TGI: 43.2 µM
HL-60(TB) leukemia
  TGI: 36.8 µM
HCT-116 colon
  TGI: 31.9 µM
M14 melanoma
  TGI: 29.9 µM
TK-10 renal
  TGI: 34.7 µM
K-562 leukemia
  TGI: 37.5 µM
OVCAR-3 ovarian
  TGI: 33.2 µM
NCI-H23 lung
  TGI: 33.4 µM
OVCAR-5 ovarian
  TGI: 10.6 µM
MALME-3M melanoma
  TGI: 47.6 µM
KM12 colon
  TGI: > 64 µM
RPMI-8226 leukemia
  TGI: 41.6 µM
UACC-62 melanoma
  TGI: 29.3 µM
A498 renal
  TGI: 37.7 µM
SF-295 CNS
  TGI: 34.1 µM
U251 CNS
  TGI: 30.9 µM
NCI-H460 lung
  TGI: 40.1 µM
NCI-H226 lung
  TGI: 14.4 µM
DMS 114 small cell lung
  TGI: 31.7 µM
SNB-19 CNS
  TGI: 36.2 µM
COLO 205 colon
  TGI: 30.6 µM
SF-539 CNS
  TGI: 30.5 µM
NCI-H522 lung
  TGI: 16.6 µM
MOLT-4 leukemia
  TGI: > 60.4 µM
OVCAR-8 ovarian
  TGI: 41.2 µM
SF-268 CNS
  TGI: 35.4 µM
SR leukemia
  TGI: 37 µM
HT29 colon
  TGI: 32.2 µM
M19-MEL melanoma
  TGI: 35.7 µM
EKVX NSCLC
  TGI: > 55.8 µM
SK-OV-3 ovarian
  TGI: 33.2 µM
DMS 273 small cell lung
  TGI: 29.6 µM
KM20L2 colon
  TGI: 1.68 µM
RXF 393 renal
  TGI: 27.3 µM
XF 498 CNS
  TGI: 35.3 µM
IGROV1 ovarian
  TGI: 33 µM
CAKI-1 renal
  TGI: 26.2 µM
HOP-62 NSCLC
  TGI: 19.9 µM
UO-31 renal
  TGI: 32.2 µM
A549 NSCLC
  TGI: 36.7 µM
SW-620 colon
  TGI: 33.8 µM
CCRF-CEM leukemia
  TGI: 46.9 µM
HCT-15 colon
  TGI: 31.1 µM
HOP-92 NSCLC
  TGI: > 65 µM
SNB-78 CNS
  TGI: 36.7 µM
LXFL 529 NSCLC
  TGI: 30.8 µM
SN12C renal
  TGI: 34.4 µM
OVCAR-4 ovarian
  TGI: 26.7 µM
786-0 renal
  TGI: 30 µM
UACC-257 melanoma
  TGI: 33.6 µM

## NC(N)=NS(=O)(=O)c1ccc(NC(=O)c2cccc3cc4ccccc4nc23)cc1
LOX IMVI melanoma
  TGI: > 100 µM
ACHN renal
  TGI: > 100 µM
SK-MEL-28 melanoma
  TGI: > 100 µM
SK-MEL-2 melanoma
  TGI: > 100 µM
HCT-116 colon
  TGI: > 100 µM
M14 melanoma
  TGI: > 100 µM
TK-10 renal
  TGI: > 100 µM
K-562 leukemia
  TGI: > 100 µM
OVCAR-3 ovarian
  TGI: > 100 µM
SK-MEL-5 melanoma
  TGI: > 100 µM
NCI-H23 lung
  TGI: > 100 µM
OVCAR-5 ovarian
  TGI: > 100 µM
MALME-3M melanoma
  TGI: > 100 µM
KM12 colon
  TGI: > 100 µM
RPMI-8226 leukemia
  TGI: > 100 µM
UACC-62 melanoma
  TGI: > 100 µM
A498 renal
  TGI: > 100 µM
SF-295 CNS
  TGI: > 100 µM
U251 CNS
  TGI: > 100 µM
NCI-H460 lung
  TGI: > 100 µM
NCI-H226 lung
  TGI: > 100 µM
DMS 114 small cell lung
  TGI: > 100 µM
SNB-19 CNS
  TGI: 31.8 µM
COLO 205 colon
  TGI: > 100 µM
SF-539 CNS
  TGI: > 100 µM
NCI-H522 lung
  TGI: > 100 µM
MOLT-4 leukemia
  TGI: > 100 µM
SNB-75 CNS
  TGI: > 100 µM
OVCAR-8 ovarian
  TGI: > 100 µM
SF-268 CNS
  TGI: > 100 µM
HT29 colon
  TGI: > 100 µM
M19-MEL melanoma
  TGI: > 100 µM
EKVX NSCLC
  TGI: > 100 µM
SK-OV-3 ovarian
  TGI: > 100 µM
DMS 273 small cell lung
  TGI: > 100 µM
KM20L2 colon
  TGI: > 100 µM
RXF 393 renal
  TGI: > 100 µM
XF 498 CNS
  TGI: > 100 µM
IGROV1 ovarian
  TGI: > 100 µM
CAKI-1 renal
  TGI: > 100 µM
HOP-62 NSCLC
  TGI: > 100 µM
UO-31 renal
  TGI: > 100 µM
A549 NSCLC
  TGI: > 100 µM
SW-620 colon
  TGI: > 100 µM
CCRF-CEM leukemia
  TGI: > 100 µM
HCT-15 colon
  TGI: > 100 µM
DLD-1 colon
  TGI: > 100 µM
SNB-78 CNS
  TGI: > 100 µM
LXFL 529 NSCLC
  TGI: > 100 µM
SN12C renal
  TGI: > 100 µM
OVCAR-4 ovarian
  TGI: 85.7 µM
786-0 renal
  TGI: > 100 µM
UACC-257 melanoma
  TGI: > 100 µM

## O=C1c2ccccc2C(=O)c2c1ccc(O)c2O
LOX IMVI melanoma
  TGI: > 100 µM
ACHN renal
  TGI: > 100 µM
SK-MEL-28 melanoma
  TGI: > 100 µM
SK-MEL-2 melanoma
  TGI: > 100 µM
HCT-116 colon
  TGI: > 100 µM
M14 melanoma
  TGI: > 100 µM
TK-10 renal
  TGI: > 100 µM
K-562 leukemia
  TGI: > 100 µM
OVCAR-3 ovarian
  TGI: > 100 µM
NCI-H23 lung
  TGI: > 100 µM
OVCAR-5 ovarian
  TGI: > 100 µM
KM12 colon
  TGI: > 100 µM
RPMI-8226 leukemia
  TGI: > 100 µM
UACC-62 melanoma
  TGI: 55.3 µM
A498 renal
  TGI: > 100 µM
SF-295 CNS
  TGI: > 100 µM
U251 CNS
  TGI: > 100 µM
NCI-H460 lung
  TGI: > 100 µM
NCI-H226 lung
  TGI: > 100 µM
SNB-19 CNS
  TGI: > 100 µM
COLO 205 colon
  TGI: > 100 µM
SF-539 CNS
  TGI: > 100 µM
NCI-H522 lung
  TGI: > 100 µM
MOLT-4 leukemia
  TGI: > 100 µM
SNB-75 CNS
  TGI: 69.2 µM
OVCAR-8 ovarian
  TGI: > 100 µM
SF-268 CNS
  TGI: > 100 µM
SR leukemia
  TGI: > 100 µM
HT29 colon
  TGI: > 100 µM
M19-MEL melanoma
  TGI: > 100 µM
EKVX NSCLC
  TGI: > 100 µM
HCC-2998 colon
  TGI: > 100 µM
DMS 273 small cell lung
  TGI: > 100 µM
RXF 393 renal
  TGI: 88.7 µM
XF 498 CNS
  TGI: > 100 µM
IGROV1 ovarian
  TGI: > 100 µM
CAKI-1 renal
  TGI: > 100 µM
HOP-62 NSCLC
  TGI: > 100 µM
UO-31 renal
  TGI: > 100 µM
SW-620 colon
  TGI: > 100 µM
CCRF-CEM leukemia
  TGI: > 100 µM
HCT-15 colon
  TGI: > 100 µM
HOP-92 NSCLC
  TGI: > 100 µM
DLD-1 colon
  TGI: > 100 µM
LXFL 529 NSCLC
  TGI: > 100 µM
SN12C renal
  TGI: > 100 µM
OVCAR-4 ovarian
  TGI: > 100 µM
786-0 renal
  TGI: > 100 µM
UACC-257 melanoma
  TGI: > 100 µM
